Results published in ChEMBL document CHEMBL1138702, “Determination of the free radical scavenging activity of dihydropyran-2,4-diones” (Bioorg Med Chem Lett, 2004).

Assays:
[1] = Antioxidant ability determined by the parameter antiradical power that is related to the factor EC50
[2] = Concentration required to decrease the initial concentration of 2,2-diphenyl-1-picrylhydrazyl (DPPH) by 50% after 60 min

For `C/C=C/C1CC(=O)CC(=O)O1` (stereo not drawn), which ARP [1] is on record?
Its ARP is 0.7 m/M.

What about the EC50 [2] of the same compound?
Its EC50 is 1.44 mM.

Which results are given for `COc1ccc(C2CC(=O)CC(=O)O2)cc1` (stereo not drawn)?
ARP [1]: 0.13 m/M; EC50 [2]: 7.61 mM

With `O=C1CC(=O)OC(c2ccccc2)C1` (stereo not drawn) as the compound, how does the ARP [1] read?
The ARP was 0.71 m/M.

What about the EC50 [2] of the same compound?
Its EC50 is 1.4 mM.

For `COc1ccc(C2CC(=O)CC(=O)O2)cc1OC` (stereo not drawn), which ARP [1] is on record?
The ARP was 0.14 m/M.

What about the EC50 [2] of the same compound?
Its EC50 is 7.13 mM.
